Series [1] is described as follows: in vitro. The following applies: human, NCI H2052 cells.
A further series has as its system PFSK-1. Description: MTT cell proliferation assay, PFSK-1. It is filed as cell-based. The following applies: Homo sapiens, concentration reducing cell growth by 50% after 72 hours, 1% DMSO. As to the method: (§1) The antitumor activities of the compounds of the invention were evaluated by a cellular proliferation assay. […] The cleavage reaction form a purple formazan crystals which is largely impermeable to cell membranes resulting in its accumulation within healthy cells. Solubilisation of the cells by addition of a detergent liberates and solubilizes the formazan crystals. The number of surviving cells is directly proportional to the level of the formazan product created. The color can then be quantified spectrophotometrically. The production of purple formazan in cells treated with a compound is measured relative to the production in control cells, and dose-response curves can be generated. This assay measures the cell proliferation rate and conversely, when metabolic events lead to apoptosis or necrosis, the reduction in cell viability, thus also allowing the evaluation of the cytotoxicity of the analogues synthesized in the laboratory.
(§2) For Tables 3 and 4, the assays were performed with 1% DMSO. The abbreviation “n.d.” means “not determined.” The values EC50, CC50, and SI have the following definitions.
(§3) Cell growth equals total cell count without any inhibitor after 72 hours minus initial cell count.
(§4) SI: Selectivity Index is the ratio CC50/EC50.

Series [2] is described as follows: MTT cell proliferation assay, PFSK-1. It is filed as cell-based. The following applies: human, PFSK-1 cells, concentration causing 50% cell death of initial cell count over 24 hours, 1% DMSO. As to the method: as §1, §2, §3, §4
In a further series the test system is Panc 02.03. Description: MTT cell proliferation assay, Panc 02.03. It is filed as cell-based. As to conditions: Homo sapiens, concentration reducing cell growth by 50% after 72 hours, 1% DMSO. As to the method:
as §1, §2, §3, §4

Series [3] in a line: MTT cell proliferation assay, Panc 02.03. It is filed as cell-based. As to conditions: human, Panc 02.03 cells, concentration causing 50% cell death of initial cell count over 24 hours, 1% DMSO. As to the method: as §1, §2, §3, §4
The nature of series [4]: in vitro. The following applies: human, NCI H1395 cells.
In series [5] the target is T1, Drosophila melanogaster dNK (Drosophila melanogaster, UniProt Q9XZT6).
T1 sequence (Q9XZT6 1-250): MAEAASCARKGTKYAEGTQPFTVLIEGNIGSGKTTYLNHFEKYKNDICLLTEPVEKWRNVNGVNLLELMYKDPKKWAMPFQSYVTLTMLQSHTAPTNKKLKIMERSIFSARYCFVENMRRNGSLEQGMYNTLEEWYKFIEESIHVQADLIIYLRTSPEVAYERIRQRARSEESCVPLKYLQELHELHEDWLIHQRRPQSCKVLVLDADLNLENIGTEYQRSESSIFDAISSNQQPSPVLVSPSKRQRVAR
Description: Phosphorylation assay (spectrophotometric coupled-enzyme), D. melanogaster dNK. The format is biochemical. As to conditions: substrate at 100 μM, 37° C., 1 mM ATP, triplicate. As to the method:
(§5) Compounds of the invention were also tested in a phosphorylation assay using three deoxynucleoside kinases. […] The compounds were at substrate concentration of 100 μM.
(§6) Kinetic assay. […] Briefly, the individual nucleosides at 100 μM were prepared in reaction buffer containing 50 mM Tris-HCl (pH 7.5), 0.1 M KCl, 5 mM MgCl2, 1 mM DTT, 1 mM ATP, 0.21 mM phosphoenolpyruvate, 0.18 mM NADH, and 2 units/ml pyruvate kinase and 2 units/ml lactate dehydrogenase (Roche Biochemicals, Indianapolis, Ind.). Assays were performed at 37° C. by measuring the absorbance change at 340 nm. The enzyme amount was adjusted to limit NADH turnover to 10% over the time of the experiment. All experiments were performed in triplicate.

Series [6] is described as follows: MTT cell proliferation assay, ZR-75-1. As to conditions: human, ZR-75-1 cells, concentration causing 50% cell death of initial cell count over 24 hours, 1% DMSO. It is filed as cell-based. The protocol:
(§7) The antitumor activities of the compounds of the invention were evaluated by a cellular proliferation assay. The MTT [3-(4,5-dimethylthiazol-2-yl)-2,5-diphenyltetrazolium bromide] cell proliferation assay, first described by Mosmann (Mosmann T., “Rapid colorimetric assay for cellular growth and survival: application to proliferation and cytotoxicity assays,” J. Immunol. Methods 1983 Dec. 16; 65(1-2):55-63, and incorporated by reference in its entirety) is based on the ability of active mitochondrial reductase enzymes from viable cells to cleave the tetrazolium rings of the pale yellow MTT. The cleavage reaction form a purple formazan crystals which is largely impermeable to cell membranes resulting in its accumulation within healthy cells. Solubilisation of the cells by addition of a detergent liberates and solubilizes the formazan crystals. The number of surviving cells is directly proportional to the level of the formazan product created. The color can then be quantified spectrophotometrically. The production of purple formazan in cells treated with a compound is measured relative to the production in control cells, and dose-response curves can be generated. This assay measures the cell proliferation rate and conversely, when metabolic events lead to apoptosis or necrosis, the reduction in cell viability, thus also allowing the evaluation of the cytotoxicity of the analogues synthesized in the laboratory.
as §2
(§8) Cell growth equals total cell count without any inhibitor after 72 hours minus initial cell count. Total cell counts after 72 hrs of growth range from 230 to 346% of initial cell counts depending on the cell line.
(§9) Total cell counts after 24 hrs of growth range from 103 to 109% of initial cell counts depending on the cell line.
as §4

Another series has as its system ZR-75-1. Description: MTT cell proliferation assay, ZR-75-1. As to conditions: Homo sapiens, concentration reducing cell growth by 50% after 72 hours, 1% DMSO. The format is cell-based. The protocol:
as §7, §2, §8, §9, §4

For series [7], the target named is Thermotoga maritima thymidine kinase (Thermotoga maritima, UniProt Q9WYN2). Description: Phosphorylation assay (spectrophotometric coupled-enzyme), T. maritima TK. As to conditions: substrate at 100 μM, 37° C., 1 mM ATP, triplicate. The format is biochemical. As to the method:
Compounds of the invention were also tested in a phosphorylation assay using three deoxynucleoside kinases. The kinases include human dCK, which is responsible for the activation of numerous nucleoside analog prodrugs; Drosophila melanogaster dNK, which is the fastest known kinases with the broadest substrate specificity profile; and Thermotoga maritima thymidine kinase, which is a good surrogate for human thymidine kinase 1, a member of the distinct type II kinase subfamily. The compounds were at substrate concentration of 100 μM.
Kinetic assay. Substrate phosphorylation was determined using a spectrophotometric coupled-enzyme assay (Munch-Petersen et al. (2000) J. Biol. Chem. vol. 275p. 66′73-66′79; Schelling et al. (2001) Anal. Biochem vol. 295 p. 82-8′7). Briefly, the individual nucleosides at 100 μM were prepared in reaction buffer containing 50 mM Tris-HCl (pH 7.5), 0.1 M KCl, 5 mM MgCl2, 1 mM DTT, 1 mM ATP, 0.21 mM phosphoenolpyruvate, 0.18 mM NADH, and 2 units/ml pyruvate kinase and 2 units/ml lactate dehydrogenase (Roche Biochemicals, Indianapolis, Ind.). Assays were performed at 37° C. by measuring the absorbance change at 340 nm. The enzyme amount was adjusted to limit NADH turnover to 10% over the time of the experiment. All experiments were performed in triplicate.

For another series, the target named is human dCK (Homo sapiens, UniProt P27707). Kind of series: Phosphorylation assay (spectrophotometric coupled-enzyme), human dCK. The format is biochemical. As to conditions: substrate at 100 μM; 37° C.; 1 mM ATP; triplicate. As to the method: as §5, §6
Sequence of human dCK (P27707 whole entry): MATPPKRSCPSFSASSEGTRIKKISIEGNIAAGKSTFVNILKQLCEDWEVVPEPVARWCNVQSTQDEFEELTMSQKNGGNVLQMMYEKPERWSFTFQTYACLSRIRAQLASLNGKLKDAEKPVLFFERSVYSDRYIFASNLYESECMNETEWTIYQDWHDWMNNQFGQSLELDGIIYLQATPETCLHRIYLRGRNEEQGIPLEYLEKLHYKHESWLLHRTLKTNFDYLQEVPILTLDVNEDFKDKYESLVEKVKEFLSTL
The nature of series [8]: in vitro. As to conditions: human, MOLT-4 cells.

Sequence of Thermotoga maritima thymidine kinase (Q9WYN2 whole entry): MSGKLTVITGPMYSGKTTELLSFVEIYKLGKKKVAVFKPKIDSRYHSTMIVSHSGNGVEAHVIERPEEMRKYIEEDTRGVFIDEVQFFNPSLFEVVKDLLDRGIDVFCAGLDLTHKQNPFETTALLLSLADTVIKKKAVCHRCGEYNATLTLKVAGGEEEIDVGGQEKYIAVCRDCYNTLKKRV

With `COC(=O)C1(C)C[C@H](n2cc(C)c(=O)[nH]c2=O)O[C@@H]1CO` (mixture of isomers) [LCB-1009, (±) methyl 2-(hydroxymethyl)-3-methyl-5-(5-methyl-2,4-dioxo-3,4-dihydropyrimidin-1(2H)-yl)tetrahydrofuran-3-carboxylate], the cytotoxic concentration (CC50) at 24 h (in “in vitro [1]”; in series [2]; in [3]; in “in vitro [4]”; in series [6]) was more than 500 µM throughout. The EC50 with PFSK-1 (PFSK-1, 72 h) was more than 500 µM; in the series with Panc 02.03, more than 500 µM; in the series with ZR-75-1 (ZR-75-1, 72 h), more than 500 µM. For the same compound, the “D. melanogaster dNK substrate phosphorylation” value in [5] (listed as LCB-1009-1) is listed as 3.49 10^6 μmol/min mg. The “T. maritima TK substrate phosphorylation” value in series [7] (listed as LCB-1009-1) was 11.9 10^−3 μmol/min mg.
For `COC(=O)C1(C)CC(n2cc(C)c(=O)[nH]c2=O)OC1CO` (racemic) [LCB-1010, (±) methyl 2-(hydroxymethyl)-3-methyl-5-(5-methyl-2,4-dioxo-3,4-dihydropyrimidin-1(2H)-yl)tetrahydrofuran-3-carboxylate], the cytotoxic concentration (CC50) at 24 h (in the series “in vitro [1]”; in series [2]; in series [3]; in the series “in vitro [4]”; in series [6]) was more than 500 µM throughout. In addition, the EC50 is more than 500 µM in the series with PFSK-1 (PFSK-1, 72 h); more than 500 µM in the series with Panc 02.03; 180 µM with ZR-75-1 (ZR-75-1, 72 h). Further, the “D. melanogaster dNK substrate phosphorylation” value in series [5] (listed as LCB-1010-1) was 2.84 10^6 μmol/min mg. Further, the “T. maritima TK substrate phosphorylation” value in series [7] (listed as LCB-1010-1) is 6 10^−3 μmol/min mg.
As for `CC1(CO)C[C@H](n2ccc(N)nc2=O)O[C@@H]1CO` (mixture of isomers) [LCB-1011], the 50% cytotoxic concentration (CC50) at 24 h (in “in vitro [1]”; in [2]; in “in vitro [4]”; in series [6]) was more than 500 µM throughout. For the same compound, the EC50 is more than 500 µM with PFSK-1 (PFSK-1, 72 h) and more than 500 µM in the series on ZR-75-1 (ZR-75-1, 72 h). For the same compound, in series [5], the “D. melanogaster dNK substrate phosphorylation” value is listed as 0.35 10^6 μmol/min mg. In addition, the “Human dCK kinase substrate phosphorylation” value at human dCK is on record as 12 10^−3 μmol/min mg.
`CC1(CO)CC(n2ccc(N)nc2=O)O[C@@H]1CO` (mixture of isomers) [LCB-1012]: the half-maximal cytotoxic concentration (CC50) at 24 h (in “in vitro [1]”; in series [2]; in the series “in vitro [4]”; in [6]) was more than 500 µM in each case. The concentration for a half-maximal effect (EC50) with PFSK-1 (PFSK-1, 72 h) is more than 500 µM; in the series on ZR-75-1 (ZR-75-1, 72 h) it was more than 500 µM. Moreover, the “D. melanogaster dNK substrate phosphorylation” value in series [5] is listed as 5.94 10^6 μmol/min mg. Besides, the “Human dCK kinase substrate phosphorylation” value at human dCK was 17 10^−3 μmol/min mg.
As to `COC(=O)C1(C)C[C@H](n2cc(F)c(=O)[nH]c2=O)O[C@@H]1CO` (mixture of isomers) [LCB-1015, 5-(5-Fluoro-2,4-dioxo-3,4-dihydro-2H-pyrimidin-1-yl)-2-hydroxymethyl-3-methyl-tetrahydro-furan-3-carboxylic acid methyl ester], the half-maximal cytotoxic concentration (CC50) at 24 h (in the series “in vitro [1]”; in [2]; in [3]; in “in vitro [4]”; in [6]) was more than 500 µM in each case. In addition, the EC50 is 380 µM with PFSK-1 (PFSK-1, 72 h); more than 500 µM in the series with Panc 02.03; 420 µM in the series with ZR-75-1 (ZR-75-1, 72 h). For the same compound, the “D. melanogaster dNK substrate phosphorylation” value in [5] (listed as LCB-1015-1) was <0.1 10^6 μmol/min mg. Further, in [7] (listed as LCB-1015-1), the “T. maritima TK substrate phosphorylation” value was <1 10^−3 μmol/min mg.
For the compound `CC1(C(N)=O)CC(n2ccc(N)nc2=O)O[C@@H]1CO` (mixture of isomers) [LCB-1018], the half-maximal cytotoxic concentration (CC50) at 24 h (in “in vitro [1]”; in series [2]; in series [3]; in the series “in vitro [4]”; in series [6]) was more than 500 µM in each case. Also, the 50% effective concentration (EC50) was more than 500 µM with PFSK-1 (PFSK-1, 72 h); more than 500 µM in the series on Panc 02.03; more than 500 µM in the series on ZR-75-1 (ZR-75-1, 72 h). The “D. melanogaster dNK substrate phosphorylation” value in [5] was 0.2 10^6 μmol/min mg. In addition, the “Human dCK kinase substrate phosphorylation” value on human dCK is on record as 63 10^−3 μmol/min mg.
On to `Nc1ccn([C@@H]2O[C@H](CO)[C@@H](O)[C@@H]2O)c(=O)n1` [Cytarabine, reference compound], for which the CC50 at 24 h in the series “in vitro [1]” is more than 500 µM; in series [2] it was more than 500 µM; in series [3], more than 500 µM; in “in vitro [4]” it was 428 µM; in “in vitro [8]” it was more than 500 µM; in [6], more than 500 µM. The EC50 was 360 µM with PFSK-1, 300 µM with Panc 02.03 and more than 500 µM with ZR-75-1.
In the case of `COC(=O)c1cn([C@H]2S[C@@H](CO)C(O)[C@@H]2O)nn1` (stereo partly shown) [LCB-1013], the “D. melanogaster dNK substrate phosphorylation” value in [5] is recorded as <0.1 10^6 μmol/min mg. Besides, at human dCK, the “Human dCK kinase substrate phosphorylation” value was <1 10^−3 μmol/min mg.

These data come from patent US8361988B2, “Nucleoside and nucleotide analogues with quaternary carbon centers and methods of use” (Institut de Recherches Cliniques de Montreal, priority 2007, dated 2013).
